Data taken from US4296112A, “Cephalosporins” (Mitsui Toatsu Chemicals, Inc., priority 1979, dated 1981).
Values after ≈ are worked out from the molar mass of the structure shown. Read-outs that look alike come from different tables or passages of the source.

Experiments:
Experiment in all cases: MIC, agar plate dilution (Referential Example 1, Table 1)
Type in all cases: cell-based
[1] = tested on: Pseudomonas aeruginosa (NCTC 7244); settings: NCTC7244, HIA medium plate, 37° C., 18 hours, read-out: Minimum growth inhibitory concentration (MIC)
Description: (§1) The antibacterial activities of the cephalosporins of this invention were measured using the sodium salts of the compounds obtained in Synthesis Examples 1 and 2. The procedure and the results are shown in Referential Example 1.
(§2) Carbenicillin sodium salt (CB-PC) and cephazoline sodum salt (CEZ) were used as controls.
(§3) The antibacterial activities of the test compounds against various Gram-positive and Gram-negative bacteria were determined in a customary manner by the minimum growth inhibitory concentration method (MIC method).
(§4) The experimental procedure was as follows:
(§5) A commercially available heart infusion agar medium (to be abbreviated HIA medium) was used as an assay medium, and a commercially available trypto-soy bouillon medium (to be abbreviated TSB) was used as a medium for the growth of test bacterial strains.
(§6) The test compound was diluted with the melted HIA medium to 100 μg/ml as a maximum concentration, and then serially diluted double. The dilutions were poured into sterilized Petri dishes respectively and allowed to cool and solidify to prepare plates containing the test compound.
(§7) The test bacterial strain was cultivated at 37° C. for 18 to 24 hours in the TSB medium. The culture broth was diluted to 50 to 500 times with a freshly prepared TSB culture medium, and one platinum loopful of the dilution was inoculated in each of the plates containing the test compound.

[2] = tested on: Klebsiella pneumoniae (ATCC 10031); settings: ATCC10031, 18 h, read-out: Minimum growth inhibitory concentration (MIC)
Description: as §1, §2, §3, §4, §5, §6, §7

[3] = tested on: Bacillus cereus (IAM 1792); settings: IAM1792, HIA medium plate, 37° C., 18 hours, read-out: Minimum growth inhibitory concentration (MIC)
Description: as §1, §2, §3, §4, §5, §6, §7

[4] = tested on: Pseudomonas aeruginosa (S-1); settings: HIA medium plate, 37° C., 18 hours, read-out: Minimum growth inhibitory concentration (MIC)
Description: as §1, §2, §3, §4, §5, §6, §7

Escherichia coli (26RO3) = settings: HIA medium plate, 37° C., 18 hours, read-out: Minimum growth inhibitory concentration (MIC)
Description: as §1, §2, §3, §4, §5, §6, §7

[5] = tested on: Pseudomonas aeruginosa (395); settings: read-out: Minimum growth inhibitory concentration (MIC)
Description: as §1, §2, §3, §4, §5, §6, §7

[6] = tested on: Pseudomonas aeruginosa (IFO-3901); settings: IFO3901, HIA medium plate, 37° C., 18 hours, read-out: Minimum growth inhibitory concentration (MIC)
Description: as §1, §2, §3, §4, §5, §6, §7

[7] = tested on: Pseudomonas aeruginosa (718); settings: HIA medium plate, 37° C., 18 hours, read-out: Minimum growth inhibitory concentration (MIC)
Description: as §1, §2, §3, §4, §5, §6, §7

Proteus morganii (C-39) = settings: Morganella morganii; HIA medium plate, 37° C., 18 hours; read-out: Minimum growth inhibitory concentration (MIC)
Description: as §1, §2, §3, §4, §5, §6, §7

| Structure (SMILES) | MIC [1] | MIC [2] | MIC [3] | MIC [4] | MIC (Escherichia coli (26RO3)) | MIC ([5]; 18 h) | MIC [6] | MIC [7] | MIC (Proteus morganii (C-39)) | MIC ([5]; HIA medium plate, 37° C., 18 hours) |
| --- | --- | --- | --- | --- | --- | --- | --- | --- | --- | --- |
| CC(=O)OCC1=C(C(=O)O)N2C(=O)C(NC(=O)[C@H](NC(=O)c3cnc4c(c3O)C(=O)CCC4)c3ccc(O)cc3)C2SC1 (single isomer, unassigned) [Synthesis Example 1, 7-[D-(-)-α-(4-hydroxy-5-oxo-5,6,7,8-tetrahydroquinoline-3-carboxamide)-α-(4-hydroxyphenyl)acetamido]-3-acetoxymethyl-Δ^3-cephem-4-carboxylic acid] | 12.5 µg/mL (≈ 20.5 µM) | 1.56 µg/mL (≈ 2.55 µM) | 25 µg/mL (≈ 40.9 µM) | 3.13 µg/mL (≈ 5.13 µM) | 3.13 µg/mL (≈ 5.13 µM) | 1.56 µg/mL (≈ 2.55 µM) | 12.5 µg/mL (≈ 20.5 µM) | 12.5 µg/mL (≈ 20.5 µM) | 12.5 µg/mL (≈ 20.5 µM) |  |
| Cc1nnc(SCC2=C(C(=O)O)N3C(=O)C(NC(=O)[C@H](NC(=O)c4cnc5c(c4O)C(=O)CCC5)c4ccc(O)cc4)C3SC2)s1 (single isomer, unassigned) [Synthesis Example 2] | 12.5 µg/mL (≈ 18.3 µM) | 0.78 µg/mL (≈ 1.14 µM) | 12.5 µg/mL (≈ 18.3 µM) | 1.56 µg/mL (≈ 2.28 µM) | 1.56 µg/mL (≈ 2.28 µM) |  | 6.25 µg/mL (≈ 9.15 µM) | 12.5 µg/mL (≈ 18.3 µM) | 6.25 µg/mL (≈ 9.15 µM) | 3.13 µg/mL (≈ 4.58 µM) |
